Reference: US20230233584A1, “EXTENDED RELEASE 5-HT RECEPTOR AGONISTS FOR NEUROLOGICAL CONDITIONS” (Diamond Therapeutics Inc., priority 2020, published 2023)
“Also recorded” adds a separate entry of the source.

Tests used:
Type in all cases: in vivo
rats = assay: Locomotor activity, distance travelled
Excerpt: Stimulant drugs cause far larger increases in distance travelled with escalating doses, reflective of a direct motor stimulant property not seen with psilocybin.

[1] = Body weight during 12-day minipump study; details: rats
Long Evans rats [2] = assay: Progressive ratio (PR) test, Study B
Experimental: General: Experiments were conducted to test psilocybin doses in the range of 0.01-0.2 mg/kg psilocybin administered S.C. across progressive ratio (PR) and 5-choice serial reaction time task (5CSRTT) to examine the effect of psilocybin on endophenotypes of motivation and attention. In each study, a population of out-bred Long Evans rats was first tested as a group for response to the PR and 5CSRTT. Each group was then divided into subgroups by tertiles according to performance, and then exposed to various dose levels immediately prior to re-testing at various psilocybin dose levels.
The PR test is used to answer how willing the test subject is to work for food (i.e. test of motivation). A single 45 mg food pellet (i.e. reinforcer) is made available to the test animal based on lever press response. To obtain each successive pellet, the animal must make increasingly more lever presses. Typically, a progression of 2, 4, 6, 9, 12, 15, 20, 25, 32, 40, 50, 62, 77, 95, 118, etc. is used, derived from the equation:
ratio=[5×e^(0.2×reinforcer #)−5]
At some point, the animal gives up as the motor demands to obtain a single pellet are not deemed worthwhile (i.e. animal reaches “break point” defined as animal's failure to earn a food pellet in 20 minutes).
Study B: Based on Study 1 outcome, a follow-up PR study was conducted utilizing a larger cohort size (72 rats total), and incorporating a lower dose of psilocybin (0.025 mg/kg SC) (FIG. 2C and FIG. 2D). […] Separation of rats based on the lowest average break point recorded over the 7 days prior to testing identified a “low responder” subgroup of N=24 rats. […] There was no treatment effect on session duration (F3,69=2.4; P=0.07, NS), although there was trend for this to be increased at the 0.1 mg/kg dose (Veh: 15.1+2.0 min; Psilo 0.1 mg/kg: 18.7+2.5 min).

Long Evans rats [3] = assay: 5CSRTT, acute dosing, 10 s ITI, premature (PREM) and perseverant (PSV) responses
Excerpt: Using a longer duration between stimulus and reward, the 5CSRTT study measures premature (PREM) and perseverant (PSV) responses. PREM/PSV responses were increased by increasing the ITI from 5 s (baseline) to 10 s (test condition). […] Both PREM and PSV behaviors are examples of executive cognitive function, likely involving areas of the prefrontal cortex, a brain region rich in 5-HT2A receptors.

Long Evans rats [4] = assay: 5-CSRTT during 12-day minipump (extended release) dosing of poor performing rats; details: for increase in premature behaviors: minipump (ER dosing)
Experimental: The 5-choice serial reaction time task (5-CSRTT) was used to measure attentional performance in rodents. The test design involves training animals to respond to a brief visual stimulus presented unpredictably in one of five locations. Once trained to stable performance levels, the effects of experimental manipulations on response speed and choice accuracy were measured and each are related to attentional performance. The test was used to examine aspects of response control with responding prior to stimulus onset, i.e., a premature response, becoming a measure of motor impulsivity. The test is adaptable to task modification. Variations to stimulus duration (SD, 0.03-1 s duration) and frequency of stimulus presentation (2-10 s), amongst others have become commonly used to tax performance.
72 male Long Evans rats (source: Charles River, St. Constant, QE) were trained to asymptotic performance in the 5-CSRTT over a period of approximately 2 months. The rats were trained to final stimulus duration (SD) of 0.75 s, 5 s inter-trial interval (ITI), 5 s limited hold (LH), 100 trials per session. The rats were singly housed and food restricted to ˜20 g food/day throughout the study.
While the target performance levels under these conditions was in the range of >80% accuracy, <20% omissions, individual rats show different performance levels based on attentional accuracy or measures of impulsive action. The selection phase involves selecting the “worst” 40 rats based on both attentional performance (lowest performance based on accuracy measures of % correct/% hit) and/or impulsive action ([…] levels of premature responses noted at an extended 10 s ITI schedule and also baseline testing).
During the training period, 72 rats were trained on the 5-CSRTT, and the 40 worst performers. The 40 animals with the “worst” attentional performance (lowest performance based on accuracy measures of % correct, omissions and response speed) and impulsive action (PREM responses) were selected for the experiment. These 40 poor performing rats were allocated into one of two cohorts, with N=16 rats implanted with a vehicle (saline, Group A) minipumps and N=24 implanted with minipumps primed with psilocybin.
For 12 days following pump implantation surgery, rats were assessed for performance in the 5-CSRTT under (A) standard 5-CSRTT protocol (5 s ITI, 0.75 s SD, 100 trials) on days 1-4, 6-8, 10-11 (i.e. 9 days total run under this condition), and (B) the more difficult conditions of 10 s ITI, 0.3 s SD, 100 trials. The standard conditions were tested on days 1-4, 6-8, 10-11, and the more difficult conditions were tested on post-implant days 5, 9 and 12 (i.e. 3 days total run under this condition).
The result was significant on D2 (P<0.05). In FIG. 8A, B/L refers to ‘baseline’ conditions of 5 s ITI, 0.75 SD (calculated by taking the mean of the days immediately prior to and immediately following the test day). For example, B/L1 is the mean of performance on the days before and after D1 (since D1 is test day 5, B/L is mean of days 4 and 6).

[5] = 0.025-0.1 mg/kg SC, all 72 rats

With `CN(C)CCc1c[nH]c2cccc(OP(=O)(O)O)c12` [psilocybin, 4-phosphoryloxy-N,N-dimethyltryptamine] the “motor activity distance travelled” value (rats; high doses) was “slightly decreased distanced travelled”, the “motor activity distance travelled” value (rats; low doses) was “increase in motor activity distance travelled” and the “Body Weight, Day 1 vs. Day 12, Average” value ([1]; Psilocybin 4 mg/mL minipump) was 20.6. For the same compound, the “Body Weight, Day 1 vs. Day 12, Average” value ([1]; Psilocybin 6 mg/mL minipump) was 19.3, the “Body Weight, Day 1 vs. Day 12, Average” value ([1]; Psilocybin 8 mg/mL minipump) was 24.4 and the “body weight over the study course” value ([1]; psilocybin minipump, 12 day study course) was “gaining body weight”. For the same compound, the “weight gain compared with placebo treated animals” value ([1]; psilocybin minipump, 12 days) was “gained weight to a lesser amount”, the session duration (Long Evans rats [2]; 0.1 mg/kg, low responder cohort) was 18.7+2.5 min and the break point (Long Evans rats [2]; [5]) was “no treatment group was significantly different to vehicle”. The “number of lever presses, session duration” value (Long Evans rats [2]; [5]) was “no main effect of treatment”, the “lever press and break point” value (Long Evans rats [2]; 0.05-0.1 mg/kg pretreatment, low responder cohort N=24, relative to vehicle) was “increases in both measures” and the “PREM and PSV responses” value (Long Evans rats [3]; 0.05 mg/kg S.C., 24 rats, p=0.05) was “increase”. The “premature responses and perseverative responses” value (Long Evans rats [3]; 0.05 and 0.1 mg/kg, low responders (N=8), p<0.01 vs vehicle) was “marked increases”, the “mean performance on Days 1-3” value (Long Evans rats [4]; 10 s ITI challenge days, vs. vehicle, p=0.03) was “significantly improved” and the “% correct / performance” value (Long Evans rats [4]; 10 s ITI, Challenge Day 2 (D2, test day 9), vs vehicle) was “significant improvement; also recorded: significant (P=0.01) increase”. The “% correct responses” value (Long Evans rats [4]; challenging conditions 10 s ITI, 0.3 s SD, test days 5, 9 and 12, vs vehicle) was “performed better than vehicle treated animals”, the “increase in premature behaviors” value (Long Evans rats [4]; more taxing/challenge conditions 10 s ITI, 0.3 s SD) was “do not have an increase in premature behaviors” and the “increase in premature behaviors” value (Long Evans rats [4]; standard conditions) was “do not have an increase in premature behaviors”. The correct attempts (Long Evans rats [4]; minipump, standard test conditions, over a period of time) was “does not increase the number of correct attempts; also recorded: did not show that psilocybin caused an increase in correct attempts”.
